The record followed here is US4053604A (priority 1975, dated 1977).

Data set [1] in a line: tail-flick test, potentiation of the analgesic activity of phenoperidine. The class given is in vivo, albino mice. The source says:
(§1) In the following experiments, phenoperidine and Compound I are used in the form of their hydrochloride salt and droperidol in the form of its free base in the presence of lactic acid for adjustment to pH to 3.4. Results are expressed on the basis of the form of the drug employed (i.e., free base or hydrochloride salt).
(§2) Results of such tests using albino mice are illustrated by tables 1,2 and 3 in which the neuroleptic agent, droperidol, is included for comparative purposes.
Potentiation of the Analgesic Activity (ED50) of Phenoperidine,
i.e. 0.5 mg/kg, by varying Doses of Neuroleptic Agents.
*PD50 refers to the dose of the neuroleptic which increased the
analgesic activity (ED50) of phenoperidine by 50%.
Modified Analgesic Activity of Phenoperidine in
the Presence of the Neuroleptic PD50. -
*ED50 refers to the analgesic activity of phenoperidine after
pretreatment with a fixed dose (PD50) of the neuroleptic agents.
In general terms: In hot-plate and tail-flick tests a longer latency is read as antinociception.

Data set [2] in a line: tail-flick test, analgesic activity of the agent alone. The settings on record: for ED50: Mus musculus, ip, 0.25 h, i.p., dose which increased analgesia by 50% when tested 15 minutes after drug administration. The class given is in vivo, albino mice.
Description: as §1, §2
*The dose which increased analgesia by 50% when tested 15 minutes after […]

The nature of data set [3]: respiratory minute volume and mean arterial blood pressure in rats. The class given is in vivo. As to the method: These effects are less than those encountered with neuroleptics presently available for NLA as evidenced by laboratory experiments in rats in which these cardiovascular parameters are measured before and after the administration of Compound 1 and the neuroleptic agent droperidol, see Table 8.
The Effect of Compound 1 and Droperidol on Respiratory Minute Volume
and Mean Arterial Blood Pressure

Data set [4] in a line: induction time of rats exposed to halothane anesthesia (loss of righting reflex). The class given is in vivo, male albino rats (Sprague-Dawley). Here is the method: (§3) The effects of Compound I on halothane-induced anesthesia were assessed using 20 rats for each dose or time interval determination. The experiments were performed on male albino rats (Sprague-Dawley) weighing from 180-220 g. A schematic representation of the apparatus used is illustrated in FIG. 1. The apparatus consists of a rectangular box made of transparent plastic (115 cm long × 28 cm high × 28 cm wide) which is divided into 4 equal chambers by perforated walls. The box rotates around a hollow axis through which gases can be delivered at several proportions from cylinders, through their respective flowmeters. An in-line halothane vaporizer is placed just before the gases reach the chambers. There is an air-tight door to every chamber through which two animals, one treated and one control, are introduced. The gases are delivered at one end of the box and suction is applied to the other end to take up the gases after flowing through the chambers. An in-line water manometer monitors the resulting pressure. This pressure is kept at 0-5 mm H2 O to make certain the gases in the anesthetic chambers remain at atmospheric pressure. The mixture of gases is delivered at a rate of 15 l/min. The inhalation anesthetic gases are delivered for ten minutes prior to the introduction of the animals into the chambers to assure an even distribution in the four chambers. The chambers rotate at four rev/min forcing the animals to tumble and allowing the experimenter to accurately time the loss and recovery of the righting reflex. Induction times are recorded as the time interval elapsed between the beginning of exposure of the animals to the gases and the moment in which they lose their righting reflex.
(§4) Groups of control animals (four at a time) were subjected to halothane concentrations ranging from 0.5 to 2.5% in a mixture of 95% O2 -5% CO2, and the induction times thus obtained were used to calculate concentration-reponse curves. Since a certain time elapsed between putting the first and the last rat into their respective chambers, each animal was timed separately with a stopwatch. […] This intermediate concentration of halothane was then used to study the effects of increasing doses of the test compound on the induction times and anesthesia times.
(§5) The animals were pretreated by administering the test compounds in dosages ranging from 10 to 500 μg/kg, i.v., at 5, 30, 60, 120, 240 and 360 minutes prior to their exposure to halothane. As soon as all animals lost their righting reflex, the O2 -halothane flow was discontinued and replaced by an equal flow of air. The animals were allowed to remain in the rotating chambers until they regained their righting reflex. Anesthesia times were determined as the interval between the time required to lose and the time to regain the righting reflex. Air flushing of the anesthetic chambers was performed after each determination and the entire procedure repeated with another group of animals for the determination of the effect of a new dose or concentration.
(§6) Drugs used in this study include: droperidol, phenoperidine hydrochloride, halothane and Compound I in the form of its hydrochloride salt. Phenoperidine hydrochloride and Compound I (hydrochloride) were dissolved separately in a warm solution of 0.9% sodium chloride. Droperidol was suspended in saline with the aid of a drop ot Tween 80 (Tween 80 is a registered trademark for a complex mixture of polyoxyethylene ethers of mixed partial oleic esters of sorbitol anhydride). Dosages are expressed in this study as the salt form of the compound where applicable. When the experimental protocol called for the concomitant administration of two drugs, these were mixed in the syringe and administered intravenously. The drugs were injected in a volume of 0.1 ml/100 g body weight.
(§7) The statistical analysis of the data was performed using Student's […]. […]

Data set [5] can be described thus: behavioral changes and side effects in cebus monkeys. The format is in vivo. The settings on record: for Behavioral Changes / Side Effects / Duration / Onset / times at which the side effect was observed: Phenoperidine, individual monkey.
Data set [6] in a line: anesthesia time of rats exposed to halothane anesthesia (recovery of righting reflex). The format is in vivo, male albino rats (Sprague-Dawley). The settings on record: phenoperidine hydrochloride 25 μg/kg, i.v.; in words. Here is the method:
as §3, §4, §5, §6, §7

The structures appear in SMILES notation. “And” between values parts separate entries of the source, which are not always exact repeats. Equal values may be shown once.

By ED50 is commonly meant the midpoint of the dose-response relation. As to `O=C(CCCN1CC=C(n2c(=O)[nH]c3ccccc32)CC1)c1ccc(F)cc1` [droperidol, reference compound], in data set [1] (in words), the “enhancement of analgesic activity of phenoperidine by concomitant administration” value is reported as “significantly enhanced”. Moreover, the “relative potentiating activity, Compound I versus droperidol” value in data set [1] (in words) is recorded as “equiactive”. In addition, the “PD50 of Neuroleptic Agent (dose which increased the analgesic activity (ED50) of phenoperidine by 50%)” value in data set [1] (mouse, in vivo, ip) was determined as 0.55 ± 0.10 mg/kg. In addition, the ED50 in data set [2] was > 30 mg/kg. In addition, in data set [2] (in words), the “analgesic activity when given alone” value is recorded as “no analgesic activity could be demonstrated”. The “Change in Mean B.P. as % of Control” value is listed as -28.4 ± 4.6 % of Control in data set [3] (25 μg/kg), -15.4 ± 5.9 % of Control in data set [3] (100 μg/kg) and -26.9 ± 3.2 % of Control in data set [3] (250 μg/kg). Moreover, the “Change in Minute Volume as % of Control” value is reported as “+13.9 ± 3.0 % of Control” in data set [3] (25 μg/kg), “+15.6 ± 6.2 % of Control” in data set [3] (100 μg/kg) and “+27.3 ± 8.1 % of Control” in data set [3] (250 μg/kg).
For the compound `FC(F)(F)C(Cl)Br` (centres unmarked) [halothane, reference compound], the “induction time, halothane alone (average)” value in data set [4] (control experiments, 1% halothane in 95% O2-5% CO2) turned out to be 2.4 min.
For the compound `CCOC(=O)C1(c2ccccc2)CCN(CCC(O)c2ccccc2)CC1` (centres unmarked) [phenoperidine, 1-(3-hydroxy-3-phenylpropyl)-4-phenylisonipecotic acid ethyl ester, reference compound], in data set [2], the ED50 stood at 0.5 ± 0.1 mg/kg. Moreover, the undesirable side effects result in data set [5] (50-100 μg/kg, in words) is “salivation and vomiting were consistently observed”. In addition, in data set [5] (10 μg/kg i.v.), the “Behavioral Changes” value is “None” and the “Side Effects” value is given as “None”. In data set [5] (50 μg/kg i.v.), the “Behavioral Changes” value is “Sedation and None”; the Duration is 1 h and > 3 h; the Onset was found to be 5 min; the “Side Effects” value is “Salivation and Vomit and None”. In addition, in data set [5] (50 μg/kg i.v.), the “times at which the side effect was observed” value was 15 min and 10 to 15 min. For the same compound, the “times at which the side effect was observed” value in data set [5] (100 μg/kg i.v., Vomit) is 5 to 25 min and 20 to 45 min. Moreover, in data set [5] (100 μg/kg i.v.), the “Behavioral Changes” value is given as “Sedation”, the Duration is 1 h, the Onset is 5 min and the “Side Effects” value is on record as “Vomit”. Also, the “doses producing the main beneficial effect (sedation) and undesirable side effects” value in data set [5] (phenoperidine i.v.) fell in the range of 0.05 to 0.1 mg/kg. Further, the “effect on anesthesia time of rats anesthetized with halothane” value in data set [6] is listed as “did not modify”. The “effect on induction time of rats anesthetized with halothane” value in data set [4] (phenoperidine hydrochloride 25 μg/kg, i.v., in words) is reported as “did not modify”.
